Patent US20200325483A1, “SAFE DELIVERY OF CRISPR AND OTHER GENE THERAPIES TO LARGE FRACTIONS OF SOMATIC CELLS IN HUMANS AND ANIMALS” (priority 2016, published 2020)
Where two headings read alike, the source gives them in different places. Ends that are not written are not given here.

Columns and labels:
TNFα = conditions: cited from earlier work
Rodents = conditions: cited from earlier work
Dogs = conditions: cited from earlier work
sepsis [1] = conditions: in vivo; cited from earlier work
humans = conditions: cited from earlier work
mice [2] = assay: LPS LD50 in mouse model; assay type: in vivo
Description: In mouse model the LD50 of LPS depends on liver protein synthesis. […] However, in mice pretreated with β-galactosamine to inhibit liver protein synthesis, the mouse LD50 is approximately 5 nanograms (200 ng/kg), 30,000 times less. By comparison, normal humans show reactions at 2-4 nanograms of LPS per kilogram. The human LD50 for LPS is below 5 micrograms per kilogram, three orders of magnitude lower than mice. Humans are […] larger yet die at doses only double the dose that kills a 25-gram mouse. […] Human LPS sensitivity is believed to be due to mutations in sialic acid binding Ig-like lectins (siglecs). Phenotypically, knockouts of siglecs produce hyper-reactive immune system components. The missing siglec-13 and inactivated siglec-17 that are active in other primates affects control over TLR4. TLR4 is the receptor for LPS. It is also the target for HMGB1, in DAMP signaling.

mice [3] = conditions: cited from earlier work
sepsis [4] = conditions: animal studies, as long as there is not an underlying infection; cited from earlier work

For `COc1cc(CC(C)N)c(OC)cc1I` (stereo not shown) [DOI, 2,5-Dimethoxy-4-iodoamphetamine], the “TNFα inhibition (in words)” value (TNFα) is given as “strongest TNFα inhibitor known”.

In the case of Polymyxin B sulfate, the tolerated dose (Rodents) is given as at least 100 mg/kg and the “dose at which animals begin dying” value (Dogs) is given as 8 mg/kg.

In the case of “ghrelin: Ghrelin, injected to rescue from sepsis (GSSFLSPEHQRVQQRKESKKPPAKLQPR; ends and bridges not checked; UniProt Q9UBU3 24-51, looked up)”, the “rescue from sepsis (in words)” value (sepsis [1]) is given as “rescue from sepsis with remarkable effect”.

For lipopolysaccharide [LPS], the “LPS LD50” value (humans; average adult human, per person) is given as 300 micrograms, the “LPS LD50” value (humans; human) is given as “below 5 micrograms per kilogram” and the “LPS dose at which reactions are shown” value (humans; normal humans) is given as 2-4 nanograms of LPS per kilogram. For the same molecule, the “fold lower LD50 in β-galactosamine pretreated vs normal mice” value (mice [2]) was 30,000 times, the “LPS LD50” value (mice [3]; mice pretreated with β-galactosamine to inhibit liver protein synthesis, per animal) was “approximately 5 nanograms” and the “LPS LD50” value (mice [3]; normal 25 gram mice, per animal) was “approximately 150 micrograms”. The “LPS LD50” value (mice [3]; normal 25 gram mice) was about 6 mg/kg and the “time for LD50 dose to complete its course” value (mice [3]; normal 25 gram mice) was 35 h.

B1: IL-10: IL-10, injected to temper sepsis (protein, UniProt P22301 19-178, looked up)
Interleukin-10: SPGQGTQSENSCTHFPGNLPNMLRDLRDAFSRVKTFFQMKDQLDNLLLKESLLEDFKGYLGCQALSEMIQFYLEEVMPQAENQDPDIKAHVNSLGENLKTLRLRLRRCHRFLPCENKSKAVEQVKNAFNKLQEKGIYKAMSEFDIFINYIEAYMTMKIRN
For B1, the “effect on sepsis (in words)” value (sepsis [4]) is listed as “effective in animal studies at tempering sepsis”.
